Measured values published in the NIST ThermoML archive (doi:10.1021/acs.jced.6b00350).
Values joined by “and” are separate entries in the source; they are usually repeats but may differ in a detail not shown here. Equal entries are not always repeated. Numbers after ± are expanded uncertainties.

Conditions: Liquid, Hot wire method

FC(F)CC(F)(F)F [1,1,1,3,3-pentafluoropropane]
Conditions	thermal conductivity
321.7 K, 49855 kPa	0.1015 ± 0.0013 W/m/K
321.7 K, 49873 kPa	0.1019 ± 0.0013 W/m/K
321.71 K, 33193 kPa	0.0964 ± 0.0012 W/m/K
321.71 K, 33197 kPa	0.09631 ± 0.0012 W/m/K
321.73 K, 26150 kPa	0.09344 ± 0.0012 W/m/K
321.73 K, 26151 kPa	0.093 ± 0.0012 W/m/K
321.74 K, 19697 kPa	0.09044 ± 0.0012 W/m/K
321.76 K, 19703 kPa	0.09051 ± 0.0012 W/m/K
321.77 K, 13835 kPa	0.08752 ± 0.0011 W/m/K
321.78 K, 13839 kPa	0.08772 ± 0.0011 W/m/K
321.81 K, 8795 kPa	0.08531 ± 0.0011 W/m/K
321.82 K, 8794 kPa	0.08538 ± 0.0011 W/m/K
322.02 K, 69892 kPa	0.1082 ± 0.0014 W/m/K
322.02 K, 69896 kPa	0.1083 ± 0.0014 W/m/K
322.06 K, 58582 kPa	0.1049 ± 0.0013 W/m/K
322.06 K, 58584 kPa	0.105 ± 0.0013 W/m/K
322.07 K, 4350 kPa	0.08295 ± 0.0011 W/m/K
322.07 K, 4352 kPa	0.08313 ± 0.0011 W/m/K
322.08 K, 49847 kPa	0.1021 ± 0.0013 W/m/K
322.09 K, 40542 kPa	0.09897 ± 0.0013 W/m/K
322.09 K, 49848 kPa	0.1021 ± 0.0013 W/m/K
322.1 K, 332 kPa	0.08025 ± 0.001 W/m/K
322.1 K, 40546 kPa	0.09896 ± 0.0013 W/m/K
322.11 K, 332 kPa	0.08034 ± 0.001 W/m/K
322.11 K, 33198 kPa	0.09595 ± 0.0012 W/m/K
322.12 K, 33200 kPa	0.09642 ± 0.0012 W/m/K
322.14 K, 26147 kPa	0.09346 ± 0.0012 W/m/K
322.15 K, 26148 kPa	0.09328 ± 0.0012 W/m/K
322.18 K, 19689 kPa	0.09041 ± 0.0012 W/m/K
322.18 K, 19694 kPa	0.09034 ± 0.0012 W/m/K
322.23 K, 13831 kPa	0.08764 ± 0.0011 W/m/K
322.23 K, 13837 kPa	0.08773 ± 0.0011 W/m/K
322.27 K, 8791 kPa	0.08514 ± 0.0011 W/m/K
322.27 K, 8795 kPa	0.08522 ± 0.0011 W/m/K
322.42 K, 69875 kPa	0.1077 ± 0.0014 W/m/K
322.42 K, 69881 kPa	0.1077 ± 0.0014 W/m/K
322.47 K, 58570 kPa	0.1047 ± 0.0013 W/m/K
322.48 K, 58576 kPa	0.1046 ± 0.0013 W/m/K
322.51 K, 49828 kPa	0.1017 ± 0.0013 W/m/K
322.51 K, 49834 kPa	0.1019 ± 0.0013 W/m/K
322.53 K, 40525 kPa	0.09861 ± 0.0013 W/m/K
322.53 K, 40531 kPa	0.09882 ± 0.0013 W/m/K
322.56 K, 4352 kPa	0.0827 ± 0.0011 W/m/K and 0.08272 ± 0.0011 W/m/K
322.56 K, 33194 kPa	0.09577 ± 0.0012 W/m/K and 0.09565 ± 0.0012 W/m/K
322.6 K, 328 kPa	0.08026 ± 0.001 W/m/K
322.61 K, 332 kPa	0.08024 ± 0.001 W/m/K
322.61 K, 26147 kPa	0.09305 ± 0.0012 W/m/K
322.61 K, 26148 kPa	0.09299 ± 0.0012 W/m/K
322.65 K, 19690 kPa	0.0904 ± 0.0012 W/m/K
322.66 K, 19689 kPa	0.09023 ± 0.0012 W/m/K
322.71 K, 13830 kPa	0.08772 ± 0.0011 W/m/K
322.72 K, 13830 kPa	0.08785 ± 0.0011 W/m/K
322.76 K, 8791 kPa	0.08512 ± 0.0011 W/m/K
322.77 K, 8793 kPa	0.08496 ± 0.0011 W/m/K
322.85 K, 69859 kPa	0.1077 ± 0.0014 W/m/K
322.86 K, 69861 kPa	0.1078 ± 0.0014 W/m/K
322.92 K, 58557 kPa	0.1047 ± 0.0013 W/m/K
322.92 K, 58569 kPa	0.1047 ± 0.0013 W/m/K
322.96 K, 49820 kPa	0.1018 ± 0.0013 W/m/K
322.97 K, 49830 kPa	0.1018 ± 0.0013 W/m/K
323 K, 40517 kPa	0.09874 ± 0.0013 W/m/K
323 K, 40525 kPa	0.09862 ± 0.0013 W/m/K
323.04 K, 33192 kPa	0.0959 ± 0.0012 W/m/K
323.05 K, 33192 kPa	0.09594 ± 0.0012 W/m/K
323.09 K, 4348 kPa	0.08267 ± 0.0011 W/m/K
323.1 K, 4349 kPa	0.08248 ± 0.0011 W/m/K
323.1 K, 26147 kPa	0.09286 ± 0.0012 W/m/K
323.11 K, 26150 kPa	0.09307 ± 0.0012 W/m/K
323.15 K, 332 kPa	0.0802 ± 0.001 W/m/K
